pEC50: −log10 of the molar value. Bridge positions count the residues as written; N and C are the ends.
What was measured:
[1] = biological target: T1, human GC-A (Homo sapiens, UniProt P16066); assay: cGMP production in HEK293 cells overexpressing GC-A, 10 min stimulation; assay type: cell-based; set-up: Mean (intracellular cGMP): unit not given here; conditions: for Mean (intracellular cGMP): 10 min, HEK293 GC-A cells
T1 construct: host or cells: HEK293
T1 sequence (P16066 33-1061): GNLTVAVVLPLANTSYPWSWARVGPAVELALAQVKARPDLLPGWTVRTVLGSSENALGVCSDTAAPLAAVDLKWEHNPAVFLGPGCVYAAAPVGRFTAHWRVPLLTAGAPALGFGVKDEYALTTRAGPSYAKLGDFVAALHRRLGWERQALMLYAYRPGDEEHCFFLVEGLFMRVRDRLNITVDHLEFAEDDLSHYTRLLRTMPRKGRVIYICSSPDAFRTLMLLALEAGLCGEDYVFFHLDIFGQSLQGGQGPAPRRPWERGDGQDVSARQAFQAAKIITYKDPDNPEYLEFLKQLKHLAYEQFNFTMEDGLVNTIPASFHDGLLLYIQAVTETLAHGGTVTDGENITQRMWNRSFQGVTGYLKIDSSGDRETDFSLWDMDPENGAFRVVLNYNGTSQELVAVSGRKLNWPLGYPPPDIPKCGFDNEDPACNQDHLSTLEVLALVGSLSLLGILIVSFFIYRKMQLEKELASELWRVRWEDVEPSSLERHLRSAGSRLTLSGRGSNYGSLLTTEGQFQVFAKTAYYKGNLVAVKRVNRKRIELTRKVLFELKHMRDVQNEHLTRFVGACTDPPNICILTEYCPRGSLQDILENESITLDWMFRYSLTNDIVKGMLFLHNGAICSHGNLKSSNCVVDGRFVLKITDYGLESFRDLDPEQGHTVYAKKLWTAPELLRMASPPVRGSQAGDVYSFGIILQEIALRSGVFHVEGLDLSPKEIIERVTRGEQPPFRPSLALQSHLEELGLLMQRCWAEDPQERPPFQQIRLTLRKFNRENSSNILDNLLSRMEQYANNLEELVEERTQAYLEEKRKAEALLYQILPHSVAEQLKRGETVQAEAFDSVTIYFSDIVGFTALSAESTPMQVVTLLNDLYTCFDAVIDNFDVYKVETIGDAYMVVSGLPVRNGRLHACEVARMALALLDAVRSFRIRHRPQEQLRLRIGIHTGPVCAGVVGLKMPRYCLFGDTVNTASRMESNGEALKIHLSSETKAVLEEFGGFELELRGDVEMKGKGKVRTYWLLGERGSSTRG
Experimental: (§1) HEK293 cells stably transfected with human GC-A (cDNA clones from Origene, Rockville, MD) using Lipofectamine (Invitrogen, Grand Island, NY), are developed. Receptor overexpression is verified with immunofluorescence and western blotting. GC-A-transfected HEK293 (HEK/GCA) cells are maintained in Dulbecco's modified Eagle's medium (DMEM) supplemented with 10% fetal bovine serum (FBS), 100 U/ml penicillin, 100 U/ml streptomycin and 250 μg/ml G418.
(§2) Two in vitro cGMP assays are performed. Briefly, HEK/GCA cells are seeded in 48-well plates and cultured overnight to 80-90% confluency. The treatment buffer used in all experiments comprises Hank's Balanced Salt Solution (HBSS), 0.1% bovine serum albumin (BSA), 2 mM HEPES, and 0.5 mM 3-isobutyl-1-methylxanthine (IBMX, a non-specific phosphodiesterase inhibitor) (Sigma, St. Louis, MO).
(§3) After treatment, all cells are washed with phosphate buffered solution (PBS) once and lysed with 0.1M HCl.

[2] = biological target: T1, human GC-A; assay: cGMP production over 6 hours in HEK/GCA cells; assay type: cell-based; conditions: 10^−8 M, FIG. 2
Experimental: as §1, §2, §3

[3] = test system: Human cardiomyocytes (HCM); assay: Human cardiomyocyte real-time apoptosis analysis (staurosporine-induced, Caspase-3/7 imaging); assay type: cell-based; conditions: 0.05 μM staurosporine, 90 hours, FIG. 6
Experimental: HCM cells are seeded in 96-well plate at approximately 80% confluency. Cells are treated with various concentrations of staurosporine (SP) to induce apoptosis. Based on the dose response curve, 0.05 μM of SP is selected to induce apoptosis in HCM.
Plates are then transferred to a time-lapsed, live imaging system IncuCyte S3 (Essen BioScience, Ann Arbor, MI) for apoptosis monitoring every 2 hours for a total of 90 hours. All treatment groups are performed in quintuplicates and repeated twice. Images are collected using the IncuCyte S3 Live-Cell Analysis System Software (Essen Bioscience, Ann Arbor, MI), and the data are analyzed for the Green Object Area of apoptotic bodies per well.

[4] = test system: Spontaneously Hypertensive Rats (SHR); assay: Plasma cGMP in spontaneously hypertensive rats; assay type: in vivo, rat
Experimental: All rat experiments are conducted following the Animal Welfare Act and the protocol is approved by the Mayo Clinic Institutional Animal Care and Use Committee (IACUC). […] Rats are included only if they are deemed healthy by the Institutional Veterinarian Department. Investigators who conduct the in vivo study are not blinded to treatments, but biochemical analysis is performed by a different investigator who is blinded to treatment.
On the day of the experiment, SHR rats are anesthetized with inactin (120 mg/kg, intraperitoneal injection, Sigma, St. Louis, MO). Rats are then kept on a heating pad at 38° C. to maintain a normal body temperature for the entire study. Vascular and bladder cannulation procedures are conducted. Briefly, a polyethylene-50 (PE-50) tube catheter is placed into one jugular vein for peptide infusion and another PE-50 tube is placed into the carotid artery for blood pressure (BP) monitoring (Sonometrics, London, Ontario, Canada) and blood sampling. After instrumentation, a 15-minute equilibrium period follows, and a 30-minute pre-infusion period is performed to collect baseline urine samples.
Four blood samples are collected to determine circulating cGMP levels: at baseline, before the end of drug infusion, at the middle of the washout clearance period, and before the end of the washout clearance period. Any blood loss in the rats is replaced with an equal volume of saline. BP is monitored and recorded every 15 minutes beginning after the initiation of peptide infusion. All collected blood are stored at −80° C. until assayed.
For the biochemical analysis, plasma cGMP levels are measured with a cGMP ELISA kit (Enzo Life Sciences, Farmingdale, NY).

[5] = 100 pmol/kg and 300 pmol/kg doses, FIG. 9B

H-RALLTAPRSLRRSSCFGHKIDRINHVSNLGCNSFRYRITAREDKQGWA-OH (disulfide 15-31) [CRRL 191]
pEC50 [1]: 9.32 | Mean (intracellular cGMP) ([1]; 10^−6 M peptide): 135.48 | Mean (intracellular cGMP) ([1]; 10^−7 M peptide): 140.84 | Mean (intracellular cGMP) ([1]; 10^−8 M peptide): 152.04 | Mean (intracellular cGMP) ([1]; 10^−9 M peptide): 89.94 | Mean (intracellular cGMP) ([1]; 10^−10 M peptide): 35.57 | Mean (intracellular cGMP) ([1]; 10^−12 M peptide): 2.57 | EC50 potency compared to ANP ([1]; 10 minutes of stimulation): greater potency | GC-A activation / cGMP production up to about 30 minutes [2]: increases in cGMP production at the same rate | GC-A activation / cGMP production after 30 minutes ([2]; up to 6 hours): continues to increase up to at least 6 hours | cardiomyocyte apoptosis induced by SP ([3]; 10^−6 M): greatest effect on reducing cardiomyocyte apoptosis | cardiomyocyte apoptosis induced by SP ([3]; 10^−8 M): reduced cardiomyocyte apoptosis | cardiomyocyte apoptosis induced by SP ([3]; 10^−10 M): reduced cardiomyocyte apoptosis | activating cGMP in plasma compared to ANP [4, 5]: more potent | duration of plasma cGMP activation after peptide administration compared to ANP [4, 5]: more sustained activation | plasma cGMP levels ([4]; iv infusion, FIG. 9A): increase

Source: US20240116990A1, “Compositions and Methods of Treatment Using CRRL 191” (Mayo Foundation for Medical Education and Research, priority 2022, published 2024)
